# In US9809578B2, “Pyrazolyl urea, thiourea, guanidine and cyanoguanidine compounds as trkA kinase inhibitors” (Array BioPharma Inc., priority 2012, dated 2017):
# Assays:
# RIPK2 = target: T1, RIPK2 (Homo sapiens, UniProt O43353); assay: KinaseProfiler RIPK2; type: biochemical; details: 10 μM, ATP near Km
# T1 construct: purchased Millipore, Inc. (KinaseProfiler service)
# Text: (§1) The compound was run in duplicate at a concentration of ATP near the Km for each individual kinase according to Millipore's specifications.
# DCAMKL2 = target: T2, DCAMKL2 (Homo sapiens, UniProt Q8N568); assay: KinaseProfiler DCAMKL2; type: biochemical; details: 10 μM, ATP near Km
# T2 construct: purchased Millipore, Inc. (KinaseProfiler service)
# Text: as §1
# GRK7 = target: T3, GRK7 (Homo sapiens, UniProt Q8WTQ7); assay: KinaseProfiler GRK7; type: biochemical; details: 10 μM, ATP near Km
# T3 construct: purchased Millipore, Inc. (KinaseProfiler service)
# Text: as §1
# DAPK2 = target: T4, DAPK2 (Homo sapiens, UniProt Q9UIK4); assay: KinaseProfiler DAPK2; type: biochemical; details: 10 μM, ATP near Km
# T4 construct: purchased Millipore, Inc. (KinaseProfiler service)
# Text: as §1
# ITK = target: T5, ITK (Homo sapiens, UniProt Q08881); assay: KinaseProfiler ITK; type: biochemical; details: 10 μM, ATP near Km
# T5 construct: purchased Millipore, Inc. (KinaseProfiler service)
# Text: as §1
# KIT = target: T6, KIT (Homo sapiens, UniProt P10721); assay: KinaseProfiler KIT; type: biochemical; details: 10 μM, ATP near Km
# T6 construct: purchased Millipore, Inc. (KinaseProfiler service)
# Text: as §1
# TAO2 = target: T7, TAO2 (Homo sapiens, UniProt Q9UL54); assay: KinaseProfiler TAO2; type: biochemical; details: 10 μM, ATP near Km
# T7 construct: purchased Millipore, Inc. (KinaseProfiler service)
# Text: as §1
# CK1delta = target: T8, CK1delta (Homo sapiens, UniProt P48730); assay: KinaseProfiler CK1delta; type: biochemical; details: 10 μM, ATP near Km
# T8 construct: purchased Millipore, Inc. (KinaseProfiler service)
# Text: as §1
# MKK7beta = target: T9, MKK7beta (Homo sapiens, UniProt O14733); assay: KinaseProfiler MKK7beta; type: biochemical; details: 10 μM, ATP near Km
# T9 construct: purchased Millipore, Inc. (KinaseProfiler service)
# Text: as §1
# PRK2 = target: T10, PRK2 (Homo sapiens, UniProt Q16513); assay: KinaseProfiler PRK2; type: biochemical; details: 10 μM, ATP near Km
# T10 construct: purchased Millipore, Inc. (KinaseProfiler service)
# Text: as §1
# CDK1/cyclinB = target: T11, CDK1/cyclinB (Homo sapiens, UniProt P06493); assay: KinaseProfiler CDK1/cyclinB; type: biochemical; details: 10 μM, ATP near Km
# T11 construct: purchased Millipore (KinaseProfiler service)
# Text: as §1
# WNK2 = target: T12, WNK2 (Homo sapiens, UniProt Q9Y3S1); assay: KinaseProfiler WNK2; type: biochemical; details: 10 μM, ATP near Km
# T12 construct: purchased Millipore, Inc. (KinaseProfiler service)
# Text: as §1
# LKB1 = target: T13, LKB1 (Homo sapiens, UniProt Q15831); assay: KinaseProfiler LKB1; type: biochemical; details: 10 μM, ATP near Km
# T13 construct: purchased Millipore, Inc. (KinaseProfiler service)
# Text: as §1
# MYLK = target: T14, MYLK (Homo sapiens, UniProt Q15746); assay: KinaseProfiler MYLK; type: biochemical; details: 10 μM, ATP near Km
# T14 construct: purchased Millipore, Inc. (KinaseProfiler service)
# Text: as §1
# [1] = target: T15, His-tagged recombinant human TrkA (Homo sapiens, UniProt P04629); assay: TrkA LanthaScreen Eu Kinase Binding Assay
# T15 construct: 6HIS tagged cytoplasmic domain from Invitrogen, Cat. No. PV3144; purchased Invitrogen PV3144
# Procedure: TrkA binding activity was determined in a TrkA LanthaScreen™ Eu Kinase Binding Assay. […] Three fold serial dilutions of compounds of the invention in DMSO were added to a final percentage of 2% DMSO. […] The percent of control was calculated using a ratiometric emission factor. The IC50 values were determined by fitting a four parameter model to the percent of control data.
# PTK5 = target: T16, PTK5 (Homo sapiens, UniProt P42685); assay: KinaseProfiler PTK5; type: biochemical; details: 10 μM, ATP near Km
# T16 construct: purchased Millipore, Inc. (KinaseProfiler service)
# Text: as §1
# Syk = target: T17, Syk (Homo sapiens, UniProt P43405); assay: KinaseProfiler Syk; type: biochemical; details: 10 μM, ATP near Km
# T17 construct: purchased Millipore, Inc. (KinaseProfiler service)
# Text: as §1
# CDK2/cyclinE = target: T18, CDK2/cyclinE (Homo sapiens, UniProt P24941); assay: KinaseProfiler CDK2/cyclinE; type: biochemical; details: 10 μM, ATP near Km
# T18 construct: purchased Millipore, Inc. (KinaseProfiler service)
# Text: as §1
# JNK3 = target: T19, JNK3 (Homo sapiens, UniProt P53779); assay: KinaseProfiler JNK3; type: biochemical; details: 10 μM, ATP near Km
# T19 construct: purchased Millipore, Inc. (KinaseProfiler service)
# Text: as §1
# IRAK4 = target: T20, IRAK4 (Homo sapiens, UniProt Q9NWZ3); assay: KinaseProfiler IRAK4; type: biochemical; details: 10 μM, ATP near Km
# T20 construct: purchased Millipore, Inc. (KinaseProfiler service)
# Text: as §1
# Yes = target: T21, Yes (Homo sapiens, UniProt P07947); assay: KinaseProfiler Yes; type: biochemical; details: 10 μM, ATP near Km
# T21 construct: purchased Millipore, Inc. (KinaseProfiler service)
# Text: as §1
# PDK1 = target: T22, PDK1 (Homo sapiens, UniProt O15530); assay: KinaseProfiler PDK1; type: biochemical; details: 10 μM, ATP near Km
# T22 construct: purchased Millipore, Inc. (KinaseProfiler service)
# Text: as §1
# MST3 = target: T23, MST3 (Homo sapiens, UniProt Q9Y6E0); assay: KinaseProfiler MST3; type: biochemical; details: 10 μM, ATP near Km
# T23 construct: purchased Millipore, Inc. (KinaseProfiler service)
# Text: as §1
# p70S6K = target: T24, p70S6K (Homo sapiens, UniProt P23443); assay: KinaseProfiler p70S6K; type: biochemical; details: 10 μM, ATP near Km
# T24 construct: purchased Millipore, Inc. (KinaseProfiler service)
# Text: as §1
# EphA1 = target: T25, EphA1 (Homo sapiens, UniProt P21709); assay: KinaseProfiler EphA1; type: biochemical; details: 10 μM, ATP near Km
# T25 construct: purchased Millipore, Inc. (KinaseProfiler service)
# Text: as §1
# MST1 = target: T26, MST1 (Homo sapiens, UniProt Q13043); assay: KinaseProfiler MST1; type: biochemical; details: 10 μM, ATP near Km
# T26 construct: purchased Millipore, Inc. (KinaseProfiler service)
# Text: as §1
# DAPK1 = target: T27, DAPK1 (Homo sapiens, UniProt P53355); assay: KinaseProfiler DAPK1; type: biochemical; details: 10 μM, ATP near Km
# T27 construct: purchased Millipore, Inc. (KinaseProfiler service)
# Text: as §1
# NLK = target: T28, NLK (Homo sapiens, UniProt Q9UBE8); assay: KinaseProfiler NLK; type: biochemical; details: 10 μM, ATP near Km
# T28 construct: purchased Millipore, Inc. (KinaseProfiler service)
# Text: as §1
# EGFR = target: T29, EGFR (Homo sapiens, UniProt P00533); assay: KinaseProfiler EGFR; type: biochemical; details: 10 μM, ATP near Km
# T29 construct: purchased Millipore, Inc. (KinaseProfiler service)
# Text: as §1
# HIPK2 = target: T30, HIPK2 (Homo sapiens, UniProt Q9H2X6); assay: KinaseProfiler HIPK2; type: biochemical; details: 10 μM, ATP near Km
# T30 construct: purchased Millipore, Inc. (KinaseProfiler service)
# Text: as §1
# ALK4 = target: T31, ALK4 (Homo sapiens, UniProt P36896); assay: KinaseProfiler ALK4; type: biochemical; details: 10 μM, ATP near Km
# T31 construct: purchased Millipore (KinaseProfiler service)
# Text: as §1
# PKCdelta = target: T32, PKCdelta (Homo sapiens, UniProt Q05655); assay: KinaseProfiler PKCdelta; type: biochemical; details: 10 μM, ATP near Km
# T32 construct: purchased Millipore, Inc. (KinaseProfiler service)
# Text: as §1
# NEK6 = target: T33, NEK6 (Homo sapiens, UniProt Q9HC98); assay: KinaseProfiler NEK6; type: biochemical; details: 10 μM, ATP near Km
# T33 construct: purchased Millipore, Inc. (KinaseProfiler service)
# Text: as §1
# MST2 = target: T34, MST2 (Homo sapiens, UniProt Q13188); assay: KinaseProfiler MST2; type: biochemical; details: 10 μM, ATP near Km
# T34 construct: purchased Millipore, Inc. (KinaseProfiler service)
# Text: as §1
# IGF-1R Activated = target: T35, IGF-1R Activated (Homo sapiens, UniProt P08069); assay: KinaseProfiler IGF-1R Activated; type: biochemical; details: 10 μM, ATP near Km
# T35 construct: purchased Millipore, Inc. (KinaseProfiler service)
# Text: as §1
# IR = target: T36, IR (Homo sapiens, UniProt P06213); assay: KinaseProfiler IR; type: biochemical; details: 10 μM, ATP near Km
# T36 construct: purchased Millipore, Inc. (KinaseProfiler service)
# Text: as §1
# Rsk1 = target: T37, Rsk1 (Homo sapiens, UniProt Q15418); assay: KinaseProfiler Rsk1; type: biochemical; details: 10 μM, ATP near Km
# T37 construct: purchased Millipore, Inc. (KinaseProfiler service)
# Text: as §1
# CDK6/cyclinD3 = target: T38, CDK6/cyclinD3 (Homo sapiens, UniProt Q00534); assay: KinaseProfiler CDK6/cyclinD3; type: biochemical; details: 10 μM, ATP near Km
# T38 construct: purchased Millipore, Inc. (KinaseProfiler service)
# Text: as §1
# CDK5/p25 = target: T39, CDK5/p25 (Homo sapiens, UniProt Q00535); assay: KinaseProfiler CDK5/p25; type: biochemical; details: 10 μM, ATP near Km
# T39 construct: purchased Millipore, Inc. (KinaseProfiler service)
# Text: as §1
# PKCbetaII = target: T40, PKCbetaII (Homo sapiens, UniProt P05771); assay: KinaseProfiler PKCbetaII; type: biochemical; details: 10 μM, ATP near Km
# T40 construct: purchased Millipore, Inc. (KinaseProfiler service)
# Text: as §1
# T1 sequence (O43353 whole entry): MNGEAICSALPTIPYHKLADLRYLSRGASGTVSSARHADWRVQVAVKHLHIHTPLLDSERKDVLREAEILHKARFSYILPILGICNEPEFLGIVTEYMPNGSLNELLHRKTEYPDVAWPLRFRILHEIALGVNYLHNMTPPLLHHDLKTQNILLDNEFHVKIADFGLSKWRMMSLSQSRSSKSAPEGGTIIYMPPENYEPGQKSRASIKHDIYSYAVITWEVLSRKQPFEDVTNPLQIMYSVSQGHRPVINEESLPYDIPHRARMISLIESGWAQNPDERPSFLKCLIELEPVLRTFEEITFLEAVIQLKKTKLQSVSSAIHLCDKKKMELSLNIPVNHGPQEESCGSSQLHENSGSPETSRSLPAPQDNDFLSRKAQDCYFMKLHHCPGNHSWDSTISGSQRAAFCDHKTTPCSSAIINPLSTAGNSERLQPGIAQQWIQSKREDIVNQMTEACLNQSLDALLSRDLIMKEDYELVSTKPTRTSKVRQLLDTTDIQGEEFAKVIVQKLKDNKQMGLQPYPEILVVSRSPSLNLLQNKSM
# T39 sequence (Q00535 whole entry): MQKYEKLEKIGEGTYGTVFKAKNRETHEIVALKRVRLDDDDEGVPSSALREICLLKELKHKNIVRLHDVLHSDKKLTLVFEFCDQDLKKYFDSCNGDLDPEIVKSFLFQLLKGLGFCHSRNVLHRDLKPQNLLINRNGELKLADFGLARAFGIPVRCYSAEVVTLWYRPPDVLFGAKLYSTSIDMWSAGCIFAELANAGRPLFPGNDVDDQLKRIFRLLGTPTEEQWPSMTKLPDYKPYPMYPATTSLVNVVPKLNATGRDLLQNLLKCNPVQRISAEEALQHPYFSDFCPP
# T39 sequence (Q15078 99-307 partner limits assumed): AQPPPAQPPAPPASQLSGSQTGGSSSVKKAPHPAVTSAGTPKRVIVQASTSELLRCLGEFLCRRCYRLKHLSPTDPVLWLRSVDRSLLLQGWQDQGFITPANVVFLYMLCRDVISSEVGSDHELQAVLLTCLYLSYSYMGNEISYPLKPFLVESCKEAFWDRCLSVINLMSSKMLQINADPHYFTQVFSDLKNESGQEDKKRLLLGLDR
# T24 sequence (P23443 whole entry): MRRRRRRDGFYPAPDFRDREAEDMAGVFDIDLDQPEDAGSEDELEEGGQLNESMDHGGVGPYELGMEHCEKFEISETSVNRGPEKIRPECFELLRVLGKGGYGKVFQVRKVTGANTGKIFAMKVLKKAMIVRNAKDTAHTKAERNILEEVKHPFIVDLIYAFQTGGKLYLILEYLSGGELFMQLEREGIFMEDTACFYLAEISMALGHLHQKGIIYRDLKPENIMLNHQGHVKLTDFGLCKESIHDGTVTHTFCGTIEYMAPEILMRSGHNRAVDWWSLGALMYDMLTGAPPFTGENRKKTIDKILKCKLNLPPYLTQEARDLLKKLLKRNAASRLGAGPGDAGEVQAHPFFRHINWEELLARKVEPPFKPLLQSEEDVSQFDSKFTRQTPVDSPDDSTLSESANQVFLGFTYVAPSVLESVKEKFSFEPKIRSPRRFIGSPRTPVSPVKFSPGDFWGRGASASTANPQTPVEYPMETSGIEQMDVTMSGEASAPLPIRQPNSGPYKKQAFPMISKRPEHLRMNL
# T22 sequence (O15530 whole entry): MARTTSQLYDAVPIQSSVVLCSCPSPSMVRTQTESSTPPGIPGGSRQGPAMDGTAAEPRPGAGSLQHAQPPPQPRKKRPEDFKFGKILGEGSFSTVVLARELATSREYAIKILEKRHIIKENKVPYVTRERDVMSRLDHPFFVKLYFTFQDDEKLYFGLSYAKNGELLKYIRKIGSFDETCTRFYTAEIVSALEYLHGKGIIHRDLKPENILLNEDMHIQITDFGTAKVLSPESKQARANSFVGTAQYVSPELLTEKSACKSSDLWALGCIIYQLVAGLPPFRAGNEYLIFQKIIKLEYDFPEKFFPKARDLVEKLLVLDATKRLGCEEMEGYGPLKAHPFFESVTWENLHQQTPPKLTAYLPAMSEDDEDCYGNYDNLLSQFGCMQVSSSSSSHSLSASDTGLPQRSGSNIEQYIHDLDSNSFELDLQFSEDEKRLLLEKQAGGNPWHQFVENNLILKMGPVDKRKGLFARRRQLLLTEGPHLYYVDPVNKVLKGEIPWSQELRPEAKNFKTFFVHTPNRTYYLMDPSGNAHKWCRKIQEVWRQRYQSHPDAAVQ
# T11 sequence (P06493 whole entry): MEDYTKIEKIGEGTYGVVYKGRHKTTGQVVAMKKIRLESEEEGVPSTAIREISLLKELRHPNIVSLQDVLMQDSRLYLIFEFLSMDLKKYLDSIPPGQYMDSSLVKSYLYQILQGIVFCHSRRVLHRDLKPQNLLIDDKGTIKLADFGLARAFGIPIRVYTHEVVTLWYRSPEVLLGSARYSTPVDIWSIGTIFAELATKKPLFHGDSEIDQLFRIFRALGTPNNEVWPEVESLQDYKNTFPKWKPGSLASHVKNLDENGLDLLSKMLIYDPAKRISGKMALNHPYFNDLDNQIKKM
# T11 sequence (P14635 whole entry partner): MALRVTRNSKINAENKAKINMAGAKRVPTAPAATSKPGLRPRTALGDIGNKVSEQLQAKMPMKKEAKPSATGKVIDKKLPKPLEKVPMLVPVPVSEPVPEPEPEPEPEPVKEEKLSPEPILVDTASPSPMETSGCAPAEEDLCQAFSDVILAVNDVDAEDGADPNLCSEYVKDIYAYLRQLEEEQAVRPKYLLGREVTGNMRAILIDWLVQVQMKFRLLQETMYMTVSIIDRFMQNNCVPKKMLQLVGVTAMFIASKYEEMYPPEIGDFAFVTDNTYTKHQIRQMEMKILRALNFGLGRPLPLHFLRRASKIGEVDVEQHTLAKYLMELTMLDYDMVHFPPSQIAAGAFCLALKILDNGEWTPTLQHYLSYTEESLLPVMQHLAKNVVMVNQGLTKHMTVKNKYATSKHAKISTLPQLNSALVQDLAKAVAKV
# T34 sequence (Q13188 whole entry): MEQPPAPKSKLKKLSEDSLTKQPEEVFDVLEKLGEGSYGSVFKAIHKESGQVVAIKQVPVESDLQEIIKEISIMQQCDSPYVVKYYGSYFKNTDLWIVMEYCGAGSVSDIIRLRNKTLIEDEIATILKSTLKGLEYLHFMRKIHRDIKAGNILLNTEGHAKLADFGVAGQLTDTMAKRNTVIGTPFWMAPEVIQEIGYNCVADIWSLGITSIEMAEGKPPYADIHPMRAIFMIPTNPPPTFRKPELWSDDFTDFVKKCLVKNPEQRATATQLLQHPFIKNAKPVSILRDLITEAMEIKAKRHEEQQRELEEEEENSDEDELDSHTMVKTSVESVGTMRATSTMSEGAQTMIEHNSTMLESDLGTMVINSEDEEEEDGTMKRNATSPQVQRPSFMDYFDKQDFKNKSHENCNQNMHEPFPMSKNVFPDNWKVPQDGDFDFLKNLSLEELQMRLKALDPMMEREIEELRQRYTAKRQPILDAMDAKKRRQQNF
# T5 sequence (Q08881 whole entry): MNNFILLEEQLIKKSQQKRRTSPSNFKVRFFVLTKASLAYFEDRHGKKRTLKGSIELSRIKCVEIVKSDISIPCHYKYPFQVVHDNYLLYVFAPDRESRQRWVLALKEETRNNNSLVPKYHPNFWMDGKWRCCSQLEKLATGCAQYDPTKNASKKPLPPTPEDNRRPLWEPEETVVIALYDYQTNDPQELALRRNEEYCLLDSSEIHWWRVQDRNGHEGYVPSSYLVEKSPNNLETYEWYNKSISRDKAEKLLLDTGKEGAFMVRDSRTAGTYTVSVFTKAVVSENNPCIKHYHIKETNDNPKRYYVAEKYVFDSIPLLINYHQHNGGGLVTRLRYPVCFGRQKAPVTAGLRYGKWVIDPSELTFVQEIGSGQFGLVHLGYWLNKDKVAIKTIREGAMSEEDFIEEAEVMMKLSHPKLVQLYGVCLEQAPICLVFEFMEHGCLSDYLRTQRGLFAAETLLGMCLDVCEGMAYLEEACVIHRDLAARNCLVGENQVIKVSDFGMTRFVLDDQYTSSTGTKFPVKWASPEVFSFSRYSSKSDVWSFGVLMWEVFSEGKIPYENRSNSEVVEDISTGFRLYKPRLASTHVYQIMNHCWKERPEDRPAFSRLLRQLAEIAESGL
# T10 sequence (Q16513 whole entry): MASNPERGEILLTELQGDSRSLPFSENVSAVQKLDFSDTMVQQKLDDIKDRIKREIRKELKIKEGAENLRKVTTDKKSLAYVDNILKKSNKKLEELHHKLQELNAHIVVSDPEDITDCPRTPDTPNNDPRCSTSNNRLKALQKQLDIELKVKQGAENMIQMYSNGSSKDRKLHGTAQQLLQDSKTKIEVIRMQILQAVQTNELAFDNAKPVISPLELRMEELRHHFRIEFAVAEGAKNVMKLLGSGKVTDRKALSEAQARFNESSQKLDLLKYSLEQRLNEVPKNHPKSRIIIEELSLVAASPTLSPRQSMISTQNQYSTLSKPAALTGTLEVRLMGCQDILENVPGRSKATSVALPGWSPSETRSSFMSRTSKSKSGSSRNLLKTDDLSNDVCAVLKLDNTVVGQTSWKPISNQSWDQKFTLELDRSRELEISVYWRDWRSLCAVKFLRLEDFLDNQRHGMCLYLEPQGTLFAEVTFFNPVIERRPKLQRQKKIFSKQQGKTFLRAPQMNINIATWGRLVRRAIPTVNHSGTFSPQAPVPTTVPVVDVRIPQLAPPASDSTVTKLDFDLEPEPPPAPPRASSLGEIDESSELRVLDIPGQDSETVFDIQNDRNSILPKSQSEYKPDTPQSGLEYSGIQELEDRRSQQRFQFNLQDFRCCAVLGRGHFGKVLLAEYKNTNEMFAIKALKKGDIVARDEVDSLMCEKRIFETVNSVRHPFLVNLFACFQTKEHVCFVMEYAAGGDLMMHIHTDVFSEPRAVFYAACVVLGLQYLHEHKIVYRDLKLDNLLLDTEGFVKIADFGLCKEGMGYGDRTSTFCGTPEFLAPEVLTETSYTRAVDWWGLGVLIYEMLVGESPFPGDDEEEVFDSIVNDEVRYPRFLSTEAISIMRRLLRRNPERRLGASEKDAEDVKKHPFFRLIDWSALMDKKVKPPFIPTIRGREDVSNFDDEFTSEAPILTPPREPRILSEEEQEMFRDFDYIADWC
compound,measurement,setting,value
"Cc1c(-c2cnn(C)c2)nn(-c2ccccc2)c1NC(=O)Nc1cc(C(F)(F)F)nn1-c1ccccc1 [Example 3, 1-(1′,4-dimethyl-1-phenyl-1H,1′H-[3,4′-bipyrazol]-5-yl)-3-(1-phenyl-3-(trifluoromethyl)-1H-pyrazol-5-yl)urea]",Avg POC,RIPK2,96.5 POC
same,Avg POC,DCAMKL2,222.5 POC
same,Avg POC,GRK7,104.5 POC
same,Avg POC,DAPK2,106 POC
same,Avg POC,ITK,128 POC
same,Avg POC,KIT,86.5 POC
same,Avg POC,TAO2,108 POC
same,Avg POC,CK1delta,141 POC
same,Avg POC,MKK7beta,143.5 POC
same,Avg POC,PRK2,106.5 POC
same,Avg POC,CDK1/cyclinB,102.5 POC
same,Avg POC,WNK2,120 POC
same,Avg POC,LKB1,95.5 POC
same,Avg POC,MYLK,122 POC
same,IC50,[1],< 0.1 µM
same,Avg POC,PTK5,102 POC
same,Avg POC,Syk,101 POC
same,Avg POC,CDK2/cyclinE,106.5 POC
same,Avg POC,JNK3,124.5 POC
same,Avg POC,IRAK4,131.5 POC
same,Avg POC,Yes,114 POC
same,Avg POC,PDK1,123 POC
same,Avg POC,MST3,146.5 POC
same,Avg POC,p70S6K,273.5 POC
same,Avg POC,EphA1,93.5 POC
same,Avg POC,MST1,92.5 POC
same,Avg POC,DAPK1,137.5 POC
same,Avg POC,NLK,116.5 POC
same,Avg POC,EGFR,97.5 POC
same,Avg POC,HIPK2,101.5 POC
same,Avg POC,ALK4,104.5 POC
same,Avg POC,PKCdelta,98.5 POC
same,Avg POC,NEK6,125 POC
same,Avg POC,MST2,102.5 POC
same,Avg POC,IGF-1R Activated,87 POC
same,Avg POC,IR,90 POC
same,Avg POC,Rsk1,123 POC
same,Avg POC,CDK6/cyclinD3,107.5 POC
same,Avg POC,CDK5/p25,108.5 POC
same,Avg POC,PKCbetaII,96.5 POC
